What all share (format): in vivo
The subject of test [1] is Echinochloa crus-galli. Description: Herbicidal effect on paddy field weeds of post-emergence stage (Post), Test Example 2. Particulars: one-leaf stage, 1000 g/ha as active ingredient, examined after 21 days. Summed up: (§1)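 Scirpus juncoides and Echinochloa crus-galli sown in clay loam, with Lindernia procumbens seed in the soil cover, under 5 cm flooding in greenhouse. At one-leaf stage, 1000 g/ha active ingredient applied to pot water. Efficacy scored visually 0–5 against untreated plants at 21 days after treatment.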

For test [2], the system named is Lindernia procumbens. The test is described as above. Conditions: one-leaf stage, 1000 g/ha as active ingredient, examined after 21 days. Summed up: as §1
In test [3] the test system is Scirpus juncoides. Described as above. Conditions: one-leaf stage, 1000 g/ha as active ingredient, examined after 21 days. Summed up: as §1
The test system of test [4] is Lindernia procumbens. Kind of test: Herbicidal efficacy on paddy field weeds of pre-emergence stage (Pre), Test Example 1. Particulars: 1000 g/ha as active ingredient, examined after 21 days. The gist of the method:
(§2)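 Clay-loam pots sown with Scirpus juncoides, covered with soil containing Lindernia procumbens seed, flooded to 5 cm. Next day formulated compound applied dropwise to water at 1000 g/ha a.i. Greenhouse-grown; growth inhibition versus untreated scored 0–5 after 21 days.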

Test [5] relates to Scirpus juncoides. The description is as above. Conditions: 1000 g/ha as active ingredient, examined after 21 days. Summed up:
as §2

Molecules are shown by their SMILES.

Take `CCC1(CC)CCN(Cc2ccccc2NS(=O)(=O)C(F)(F)F)C(=O)O1` [Compound 1-102]: the “Echinochloa crus-galli post (herbicidal effect)” value (“Echinochloa crus-galli post” for short) in test [1] is given as 4 (90%-99% herbicidal effect, phytotoxicity). The “Lindernia procumbens post (herbicidal effect)” value (from here on “Lindernia procumbens post”) in test [2] is recorded as 4 (90%-99% herbicidal effect, phytotoxicity). Further, the “Scirpus juncoides post (herbicidal effect)” value (“Scirpus juncoides post” below) in test [3] was 4 (90%-99% herbicidal effect, phytotoxicity). Also, in test [4], the “Lindernia procumbens pre (herbicidal effect)” value (“Lindernia procumbens pre” below) is listed as 4 (90%-99% herbicidal effect, phytotoxicity). Besides, the “Scirpus juncoides pre (herbicidal effect)” value (from here on “Scirpus juncoides pre”) in test [5] was 4 (90%-99% herbicidal effect, phytotoxicity).
Turning to `CCOC(=O)N(c1ccccc1CN1CCC(CC)(CC)OC1=O)S(=O)(=O)C(F)(F)F` [Compound 1-104], the “Echinochloa crus-galli post” value in test [1] is on record as 4 (90%-99% herbicidal effect, phytotoxicity). The “Lindernia procumbens post” value in test [2] is 4 (90%-99% herbicidal effect, phytotoxicity). The “Scirpus juncoides post” value in test [3] was 4 (90%-99% herbicidal effect, phytotoxicity). Further, in test [4], the “Lindernia procumbens pre” value was 4 (90%-99% herbicidal effect, phytotoxicity). In addition, the “Scirpus juncoides pre” value in test [5] is recorded as 4 (90%-99% herbicidal effect, phytotoxicity).
For `CCC1(CC)CCN(Cc2ccccc2N(C(=O)OCC(C)C)S(=O)(=O)C(F)(F)F)C(=O)O1` [Compound 1-107], the “Echinochloa crus-galli post” value in test [1] is 4 (90%-99% herbicidal effect, phytotoxicity). Further, the “Lindernia procumbens post” value in test [2] is on record as 4 (90%-99% herbicidal effect, phytotoxicity). Moreover, the “Scirpus juncoides post” value in test [3] is listed as 4 (90%-99% herbicidal effect, phytotoxicity). In addition, the “Lindernia procumbens pre” value in test [4] is given as 4 (90%-99% herbicidal effect, phytotoxicity). In addition, in test [5], the “Scirpus juncoides pre” value was 4 (90%-99% herbicidal effect, phytotoxicity).
Consider `CCCCC(CC)COC(=O)N(c1ccccc1CN1CCC(CC)(CC)OC1=O)S(=O)(=O)C(F)(F)F` (stereo not shown) [Compound 1-109], for which the “Echinochloa crus-galli post” value in test [1] is listed as 4 (90%-99% herbicidal effect, phytotoxicity). The “Lindernia procumbens post” value in test [2] is given as 4 (90%-99% herbicidal effect, phytotoxicity). The “Scirpus juncoides post” value in test [3] is given as 4 (90%-99% herbicidal effect, phytotoxicity). Besides, in test [4], the “Lindernia procumbens pre” value was 4 (90%-99% herbicidal effect, phytotoxicity). Besides, the “Scirpus juncoides pre” value in test [5] is recorded as 4 (90%-99% herbicidal effect, phytotoxicity).
For the compound `CCC1(CC)CCN(Cc2ccccc2N(C(=O)OCC(C)(C)C)S(=O)(=O)C(F)(F)F)C(=S)O1` [Compound 1-120], in test [1], the “Echinochloa crus-galli post” value was 4 (90%-99% herbicidal effect, phytotoxicity). In addition, the “Lindernia procumbens post” value in test [2] is on record as 4 (90%-99% herbicidal effect, phytotoxicity). Further, in test [3], the “Scirpus juncoides post” value is 4 (90%-99% herbicidal effect, phytotoxicity). Also, the “Lindernia procumbens pre” value in test [4] is 4 (90%-99% herbicidal effect, phytotoxicity). In addition, the “Scirpus juncoides pre” value in test [5] was 4 (90%-99% herbicidal effect, phytotoxicity).
As to `CC1(C2CC2)CCN(Cc2ccccc2NS(=O)(=O)C(F)(F)F)C(=O)O1` (stereo not shown) [Compound 1-125], the “Echinochloa crus-galli post” value in test [1] is given as 4 (90%-99% herbicidal effect, phytotoxicity). For the same compound, the “Lindernia procumbens post” value in test [2] is given as 4 (90%-99% herbicidal effect, phytotoxicity). The “Scirpus juncoides post” value in test [3] was 4 (90%-99% herbicidal effect, phytotoxicity). Further, the “Lindernia procumbens pre” value in test [4] is 4 (90%-99% herbicidal effect, phytotoxicity). Also, in test [5], the “Scirpus juncoides pre” value was 4 (90%-99% herbicidal effect, phytotoxicity).
Regarding `CC(C)COC(=O)N(c1ccccc1CN1CCC(C)(C2CC2)OC1=O)S(=O)(=O)C(F)(F)F` (stereo not shown) [Compound 1-130], the “Echinochloa crus-galli post” value in test [1] is recorded as 4 (90%-99% herbicidal effect, phytotoxicity). Moreover, the “Lindernia procumbens post” value in test [2] is reported as 4 (90%-99% herbicidal effect, phytotoxicity). Also, the “Scirpus juncoides post” value in test [3] is reported as 4 (90%-99% herbicidal effect, phytotoxicity). For the same compound, in test [4], the “Lindernia procumbens pre” value is on record as 4 (90%-99% herbicidal effect, phytotoxicity). Moreover, the “Scirpus juncoides pre” value in test [5] is 4 (90%-99% herbicidal effect, phytotoxicity).
As to `CC(C)(C)COC(=O)N(c1ccccc1CN1CCC(C)(C2CC2)OC1=O)S(=O)(=O)C(F)(F)F` (stereo not shown) [Compound 1-131], the “Echinochloa crus-galli post” value in test [1] is recorded as 4 (90%-99% herbicidal effect, phytotoxicity). Further, the “Lindernia procumbens post” value in test [2] is on record as 4 (90%-99% herbicidal effect, phytotoxicity). Besides, the “Scirpus juncoides post” value in test [3] is recorded as 4 (90%-99% herbicidal effect, phytotoxicity). Also, the “Lindernia procumbens pre” value in test [4] is 4 (90%-99% herbicidal effect, phytotoxicity). For the same compound, the “Scirpus juncoides pre” value in test [5] is 4 (90%-99% herbicidal effect, phytotoxicity).
In the case of `CC(C)(C)C(=O)OCN(c1ccccc1CN1CCC(C)(C2CC2)OC1=O)S(=O)(=O)C(F)(F)F` (stereo not shown) [Compound 1-136], the “Echinochloa crus-galli post” value in test [1] is on record as 4 (90%-99% herbicidal effect, phytotoxicity). For the same compound, in test [2], the “Lindernia procumbens post” value is 4 (90%-99% herbicidal effect, phytotoxicity). For the same compound, in test [3], the “Scirpus juncoides post” value is recorded as 4 (90%-99% herbicidal effect, phytotoxicity). The “Lindernia procumbens pre” value in test [4] is recorded as 4 (90%-99% herbicidal effect, phytotoxicity). Besides, the “Scirpus juncoides pre” value in test [5] is 4 (90%-99% herbicidal effect, phytotoxicity).
With `O=C1OC2(CCCC2)CCN1Cc1ccccc1NS(=O)(=O)C(F)(F)F` [Compound 1-137], in test [1], the “Echinochloa crus-galli post” value was 4 (90%-99% herbicidal effect, phytotoxicity). The “Lindernia procumbens post” value in test [2] is 4 (90%-99% herbicidal effect, phytotoxicity). The “Scirpus juncoides post” value in test [3] is 4 (90%-99% herbicidal effect, phytotoxicity). Moreover, the “Lindernia procumbens pre” value in test [4] was 4 (90%-99% herbicidal effect, phytotoxicity). Further, the “Scirpus juncoides pre” value in test [5] is 4 (90%-99% herbicidal effect, phytotoxicity).
`CC(C)COC(=O)N(c1ccccc1CN1CCC2(CCCC2)OC1=O)S(=O)(=O)C(F)(F)F` [Compound 1-142]: the “Echinochloa crus-galli post” value in test [1] is recorded as 4 (90%-99% herbicidal effect, phytotoxicity). Besides, the “Lindernia procumbens post” value in test [2] is listed as 4 (90%-99% herbicidal effect, phytotoxicity). In test [3], the “Scirpus juncoides post” value is recorded as 4 (90%-99% herbicidal effect, phytotoxicity). Also, the “Lindernia procumbens pre” value in test [4] is on record as 4 (90%-99% herbicidal effect, phytotoxicity). The “Scirpus juncoides pre” value in test [5] was 4 (90%-99% herbicidal effect, phytotoxicity).
On to `CC(C)(C)COC(=O)N(c1ccccc1CN1CCC2(CCCC2)OC1=O)S(=O)(=O)C(F)(F)F` [Compound 1-143], for which the “Echinochloa crus-galli post” value in test [1] is listed as 4 (90%-99% herbicidal effect, phytotoxicity). For the same compound, the “Lindernia procumbens post” value in test [2] is reported as 4 (90%-99% herbicidal effect, phytotoxicity). The “Scirpus juncoides post” value in test [3] is recorded as 4 (90%-99% herbicidal effect, phytotoxicity). Besides, the “Lindernia procumbens pre” value in test [4] is reported as 4 (90%-99% herbicidal effect, phytotoxicity). Further, the “Scirpus juncoides pre” value in test [5] is reported as 4 (90%-99% herbicidal effect, phytotoxicity).
With `CCOC(=O)N(c1ccccc1CN1CCC(c2ccccc2)(C2CC2)OC1=O)S(=O)(=O)C(F)(F)F` (stereo not shown) [Compound 1-185], the “Echinochloa crus-galli post” value in test [1] was 4 (90%-99% herbicidal effect, phytotoxicity). The “Lindernia procumbens post” value in test [2] was 4 (90%-99% herbicidal effect, phytotoxicity). The “Scirpus juncoides post” value in test [3] was 4 (90%-99% herbicidal effect, phytotoxicity). For the same compound, the “Lindernia procumbens pre” value in test [4] was 4 (90%-99% herbicidal effect, phytotoxicity). In addition, the “Scirpus juncoides pre” value in test [5] was 4 (90%-99% herbicidal effect, phytotoxicity).
For the compound `CCOC(=O)N(c1ccccc1CN1CCC(c2ccccc2)(C2CCC2)OC1=O)S(=O)(=O)C(F)(F)F` (stereo not shown) [Compound 1-208], the “Echinochloa crus-galli post” value in test [1] was 4 (90%-99% herbicidal effect, phytotoxicity). Also, the “Lindernia procumbens post” value in test [2] is given as 4 (90%-99% herbicidal effect, phytotoxicity). In test [3], the “Scirpus juncoides post” value is recorded as 4 (90%-99% herbicidal effect, phytotoxicity). Besides, the “Lindernia procumbens pre” value in test [4] was 4 (90%-99% herbicidal effect, phytotoxicity). Also, in test [5], the “Scirpus juncoides pre” value is 4 (90%-99% herbicidal effect, phytotoxicity).
Take `CC(C)COC(=O)N(c1ccccc1CN1CCC(c2ccccc2)(C2CCC2)OC1=O)S(=O)(=O)C(F)(F)F` (stereo not shown) [Compound 1-211]: in test [1], the “Echinochloa crus-galli post” value is reported as 4 (90%-99% herbicidal effect, phytotoxicity). Further, the “Lindernia procumbens post” value in test [2] is reported as 4 (90%-99% herbicidal effect, phytotoxicity). The “Scirpus juncoides post” value in test [3] is reported as 4 (90%-99% herbicidal effect, phytotoxicity). For the same compound, the “Lindernia procumbens pre” value in test [4] is on record as 4 (90%-99% herbicidal effect, phytotoxicity). Besides, the “Scirpus juncoides pre” value in test [5] is reported as 4 (90%-99% herbicidal effect, phytotoxicity).
Regarding `CCOC(=O)N(c1ccccc1CN1CCC(c2ccccc2)(C(F)(F)F)OC1=O)S(=O)(=O)C(F)(F)F` (stereo not shown) [Compound 1-230], the “Echinochloa crus-galli post” value in test [1] was 4 (90%-99% herbicidal effect, phytotoxicity). Also, in test [2], the “Lindernia procumbens post” value is on record as 5 (100% herbicidal effect, phytotoxicity). The “Scirpus juncoides post” value in test [3] was 4 (90%-99% herbicidal effect, phytotoxicity). The “Lindernia procumbens pre” value in test [4] was 5 (100% herbicidal effect, phytotoxicity). Further, the “Scirpus juncoides pre” value in test [5] is 5 (100% herbicidal effect, phytotoxicity).
As for `CC1(C)CN(Cc2ccccc2NS(=O)(=O)C(F)(F)F)C(=O)OC1c1ccccc1` (stereo not shown) [Compound 1-261], in test [1], the “Echinochloa crus-galli post” value is reported as 4 (90%-99% herbicidal effect, phytotoxicity). Also, in test [2], the “Lindernia procumbens post” value was 5 (100% herbicidal effect, phytotoxicity). In addition, the “Scirpus juncoides post” value in test [3] was 4 (90%-99% herbicidal effect, phytotoxicity). For the same compound, the “Lindernia procumbens pre” value in test [4] is recorded as 5 (100% herbicidal effect, phytotoxicity). In test [5], the “Scirpus juncoides pre” value is 5 (100% herbicidal effect, phytotoxicity).
